Results published in US12285397B2, “Use of (s)-3-amino-4-(difluoromethylenyl) cyclopent-1-ene-1-carboxylic acid and related compounds, (1S,3S)-3-amino-4-(difluoromethylidene) cyclopentane-1-carboxylic acid and vigabatrin in the treatment of developmental disorders” (Ovid Therapeutics Inc., priority 2018, dated 2025).

Tests used:
Type in all cases: in vivo, mouse
[1] = system: Fmr1 KO1 transgenic mice in an FVB background; experiment: Audiogenic seizures (AGS), Fmr1 KO1 mice in FVB background; settings: for Incidence / Respiratory arrest / Seizure / Wild running: audio stimulus 60 seconds at 124 db
Method: 4. Audiogenic Seizures (AGS) are reflex seizures generated by loud noises in genetically predisposed mice. The Fmr1 KO1 mice display audiogenic seizures depending on age and background strain, the Fmr1 KO1 mouse on the FVB background is characterized by an increased AGS susceptibility at all ages and is considered a good animal model for epilepsy. The effect of (S)-3-amino-4-(difluoromethylenyl) cyclopent-1-ene-1-carboxylic acid was tested on AGS Fmr1 KO1 transgenic mice in an FVB background. Observable criteria are: 1. normal behavior, 2. wild running, 3. seizure, and 4. respiratory arrest.
(S)-3-amino-4-(difluoromethylenyl) cyclopent-1-ene-1-carboxylic acid was administered to Fmr1 KO1 mice, males, age 2 months in the following amounts: 0.01 mg/kg, 0.05 mg/kg, and 0.1 mg/kg. Positive controls were administered 2-Methyl-6-(phenylethynyl)pyridine (MPEP), a mGluR5 antagonist, 30 mg/kg by i.p. and tested 20 minutes after injection. Audio stimulus was administered continuously for 60 seconds at 124 db.

Fmr1 KO1 mice = experiment: Tests of daily living (nesting), Fmr1 KO1 mice
Excerpt: (§1) Mutant fmr1 knockout (KO) mice recapitulate the Fragile X syndrome (FXS) phenotype and represent a preclinical model for assessment of putative drug treatments. In this study three different mice models of FXS were used: Fmr1 KO1 is the original Fmr1 knockout animal that carries an insertion in exon 5. See, e.g., Bakker C E, et al., The Dutch-Belgian Fragile X Consortium, Fmr1 knockout mice: A model to study fragile X mental retardation. Cell. 1994; 78:23-33 It is a protein null, although Fmr1 mRNA is still present. It is backcrossed to the C57/B16 strain. Subsequently, these mice were bred into different background strains, such as the FVB inbred mouse strain. Fmr1 KO2 is a null allele at Fmr1 generated by deletion of the promoter and first exon of Fmr1. See, Mientjes, E J et al., The generation of a conditional Fmr1 knock out mouse model to study Fmrp function in vivo. Neurobiology of Disease (2006) 21(3): 549-555. It is both protein and mRNA null. Backcrossed to the C57/B16 strain. Genotyping was accomplished using TransnetXY Automated Genotyping (http://www.transnetyx.com/). TRANSNETYX, INC., 8110 Cordova Rd. Suite 119, Cordova, TN 38016, USA.
(§2) The mice were housed in plastic cages (35×30×12 cm), 5 in each and habituated to the animal facilities for at least a week before test. The room temperature (21±2° C.), relative humidity (55±5%), a 12-h light-dark cycle (lights on 7 a.m.-7 p.m.) and air exchange (16 times per h) were automatically controlled. The animals had free access to commercial food pellets and water. Testing was conducted during the light phase. Testing was conducted on Fmr1 knockout mice and their wild-type (WT) littermates. Ten mice per treatment group, 14 weeks of age, were used for behavioral experiments. Experiments were conducted in line with the requirements of the UK Animals (Scientific Procedures) Act, 1986.
(§3) Oral dosing was performed by using 1.5-in. curved, 20-gauge, stainless steel feeding needles with a 2.25-mm ball (Braintree Scientific, Braintree, MA). Each gavage treatment was given in 0.5% methyl cellulose (Methyl Cellulose M0512, Sigma-Aldrich, St Louis, MO) used as vehicle with or without treatment compounds. The same veterinarian, blinded to the treatment groups, performed the procedure, and documented animal reactions to oral gavage. Reactions considered to indicate stress were defined as excessive struggling during gavage or abnormal behavior after gavage (labored breathing, frozen stance, exaggerated jumping, shuddering, and hunched posture).
(§4) For experiments all mice were tested once in the same apparatus. Prior to testing, mice not in the study were placed in the apparatus for some minutes before the experiment. The apparatus was then cleaned with moist and dry tissues before testing each mouse. The aim was to create a low but constant background mouse odor for all experimental subjects. All experiments were conducted with the experimenters blind to genotype and drug treatment during all testing and data analysis. Separate investigators prepared and coded dosing solutions, allocated the mice to the study treatment groups, dosed the animals, and collected the behavioral data. Data were analyzed by one-way analysis of variance (ANOVA) followed by post-hoc comparisons where appropriate using Tukey's Multiple Comparison Test. Data are represented as the mean and standard error of the mean (SEM).
3. Tests of daily living (Nesting): FIG. 11 is a bar graph illustrating nest building quality by wild-type mice administered 0.5% methyl cellulose vehicle, Fmr1 KO1 mice administered 0.5% methyl cellulose, Fmr1 KO1 mice administered (S)-3-amino-4-(difluoromethylenyl) cyclopent-1-ene-1-carboxylic acid 0.01 mg/kg, Fmr1 KO1 mice administered (S)-3-amino-4-(difluoromethylenyl) cyclopent-1-ene-1-carboxylic acid 0.05 mg/kg, and Fmr1 KO1 mice administered (S)-3-amino-4-(difluoromethylenyl) cyclopent-1-ene-1-carboxylic acid 0.1 mg/kg.

Fmr1 KO2 mice [2] = experiment: Tests of daily living (nesting), Fmr1 KO2 mice
Excerpt: as §1, §2, §3, §4
3. Tests of daily living (nesting). Species-typical behaviors offer easy ways to test for hippocampal dysfunction. The hippocampus is vital for the performance of species-typical tasks, or “activities of daily living” of mice. […]

Fmr1 KO2 mice [3] = experiment: Hyponeophagia (anxiety, latency to eat), Fmr1 KO2 mice
Excerpt: as §1, §2, §3, §4
4. Hyponeophagia (inhibition of feeding) is used as a measure of anxiety which can be produced by a novel environment, particularly in rodents. […]

Structure (SMILES): N[C@H]1C=C(C(=O)O)CC1=C(F)F [Compound, (S)-3-Amino-4-(difluoromethylenyl)cyclopent-1-ene-1-carboxylic acid]
- Incidence ([1]; 0.01 mg/kg): 100%
- Respiratory arrest ([1]; 0.01 mg/kg): 7/10
- Seizure ([1]; 0.01 mg/kg): 10/10
- Wild running ([1]; 0.01 mg/kg): 10/10
- Incidence ([1]; 0.05 mg/kg): 100%
- Respiratory arrest ([1]; 0.05 mg/kg): 5/10
- Seizure ([1]; 0.05 mg/kg): 8/10
- Wild running ([1]; 0.05 mg/kg): 10/10
- Audiogenic seizure susceptibility reduced to ([1]; 0.1 mg/Kg, Fmr1 KO1 mice (FVB background)): 40%
- Incidence ([1]; 0.1 mg/kg): 40%
- Respiratory arrest ([1]; 0.1 mg/kg): 4/10
- Seizure ([1]; 0.1 mg/kg): 5/10
- Wild running ([1]; 0.1 mg/kg): 4/10
- Nesting, WT-Veh vs. KO1-Compound: Significant? (Fmr1 KO1 mice; 0.01 mg/Kg PO QD seven days): Yes
- Nesting, WT-Veh vs. KO1-Compound: Significant? (Fmr1 KO1 mice; 0.05 mg/Kg PO QD seven days): No
- Nesting, WT-Veh vs. KO1-Compound: Summary (Fmr1 KO1 mice; 0.05 mg/Kg PO QD seven days): ns
- Nesting, WT-Veh vs. KO1-Compound: Significant? (Fmr1 KO1 mice; 0.1 mg/Kg PO QD seven days): No
- Nesting, WT-Veh vs. KO1-Compound: Summary (Fmr1 KO1 mice; 0.1 mg/Kg PO QD seven days): ns
- Effect on nesting behavior (FIG. 11) (Fmr1 KO1 mice; 0.05 and 0.1 mg/Kg): rescues poor nesting behavior
- Nesting, WT-Veh vs. KO2-Compound: Significant? (Fmr1 KO2 mice [2]; 0.01 mg/Kg PO QD seven days): Yes
- Nesting, WT-Veh vs. KO2-Compound: Significant? (Fmr1 KO2 mice [2]; 0.05 mg/Kg PO QD seven days): No
- Nesting, WT-Veh vs. KO2-Compound: Summary (Fmr1 KO2 mice [2]; 0.05 mg/Kg PO QD seven days): ns
- Nesting, WT-Veh vs. KO2-Compound: Significant? (Fmr1 KO2 mice [2]; 0.1 mg/Kg PO QD seven days): No
- Nesting, WT-Veh vs. KO2-Compound: Summary (Fmr1 KO2 mice [2]; 0.1 mg/Kg PO QD seven days): ns
- Effect on poorer nest building phenotype (FIG. 5) (Fmr1 KO2 mice [2]; 0.05 and 0.1 mg/Kg): rescued
- Hyponeophagia (latency to eat), WT-Veh vs. KO2-Compound: Significant? (Fmr1 KO2 mice [3]; 0.01 mg/Kg PO QD seven days): Yes
- Hyponeophagia (latency to eat), WT-Veh vs. KO2-Compound: Significant? (Fmr1 KO2 mice [3]; 0.05 mg/Kg PO QD seven days): No
- Hyponeophagia (latency to eat), WT-Veh vs. KO2-Compound: Summary (Fmr1 KO2 mice [3]; 0.05 mg/Kg PO QD seven days): ns
- Hyponeophagia (latency to eat), WT-Veh vs. KO2-Compound: Significant? (Fmr1 KO2 mice [3]; 0.1 mg/Kg PO QD seven days): No
- Hyponeophagia (latency to eat), WT-Veh vs. KO2-Compound: Summary (Fmr1 KO2 mice [3]; 0.1 mg/Kg PO QD seven days): ns
- Effect on latency to eat in hyponeophagia test (FIG. 6) (Fmr1 KO2 mice [3]; 0.05 and 0.1 mg/Kg): decreasing their latency to eat to virtually control levels
